Measurements: ChEMBL document CHEMBL3751690, “Oxidative burst inhibition, cytotoxicity and antibacterial acriquinoline alkaloids from Citrus reticulate (Blanco)” (Bioorg Med Chem Lett, 2016)

Columns and labels:
[1] = Inhibition of serum-opsonized zymosan-induced oxidative burst in whole blood (unknown origin); assay type: functional, tissue-based
[2] = Cytotoxicity against human PC3 cells after 3 days by MTT assay; assay type: functional, cell-based; conditions: PC-3, 72 h
Bacillus subtilis = test: Antimicrobial activity against Bacillus subtilis after 48 hrs by paper disk diffusion assay; assay type: functional
Staphylococcus aureus = test: Antimicrobial activity against Staphylococcus aureus after 48 hrs by paper disk diffusion assay; assay type: functional
Escherichia coli = test: Antimicrobial activity against Escherichia coli after 48 hrs by paper disk diffusion assay; assay type: functional
Rhizomucor miehei = test: Antimicrobial activity against Mucor miehei after 48 hrs by paper disk diffusion assay; assay type: functional
Candida albicans = test: Antimicrobial activity against Candida albicans after 48 hrs by paper disk diffusion assay; assay type: functional
Aphanomyces cochlioides = test: Antimicrobial activity against Aphanomyces cochlioides after 48 hrs by paper disk diffusion assay; assay type: functional
Globisporangium ultimum = test: Antimicrobial activity against Pythium ultimum after 48 hrs by paper disk diffusion assay; assay type: functional
Rhizoctonia solani = test: Antimicrobial activity against Rhizoctonia solani after 48 hrs by paper disk diffusion assay; assay type: functional

IC50 [1] [µM]	MIC (Bacillus subtilis) [µg/mL]	MIC (Staphylococcus aureus) [µg/mL]	MIC (Escherichia coli) [µg/mL]	MIC (Rhizomucor miehei) [µg/mL]	MIC (Candida albicans) [µg/mL]	MIC (Aphanomyces cochlioides) [µg/mL]	MIC (Globisporangium ultimum) [µg/mL]	MIC (Rhizoctonia solani) [µg/mL]	SMILES	IC50 [2] [µM]
16.4	> 1	> 1	> 1	> 1	> 1	> 1	> 1	> 1	COc1cc(O)c(C=O)cc1OC	60.1
9.4	> 1	> 1	> 1	> 1	> 1	> 1	> 1	> 1	COc1c2ccoc2c(OC)c2oc(=O)ccc12 [ISOPIMPINELLIN]	99.8
17.2	> 1	> 1	> 1	> 1	> 1	> 1	> 1	> 1	Cc1cc2c3c(ccc(=O)n3C(O)(c3c(O)ccc4c(=O)c5c(O)cc6c(c5n(C)c34)C=CC(C)(C)O6)C2=O)c1 (configuration not stated)	71.5
11.2									CC(C)Cc1ccc(C(C)C(=O)O)cc1 (configuration not stated) [IBUPROFEN]	
									COc1cccc2c1C(=O)c1c(O)c3c(c(O)c1C2=O)C[C@@](O)(C(=O)CO)C[C@@H]3O[C@H]1C[C@H](N)[C@H](O)[C@H](C)O1 [DOXORUBICIN]	0.9
4.5	> 1	> 1	> 1	> 1	> 1	> 1	> 1	> 1	COc1cccc2c(=O)c3c(O)cc4c(c3n(C)c12)C=CC(C)(C)O4	70
18.3	> 1	> 1	> 1	> 1	> 1	> 1	> 1	> 1	COc1cc2oc(=O)ccc2cc1CC=C(C)C [SUBEROSIN]	51.3
20.1	> 1	> 1	> 1	> 1	> 1	> 1	> 1	> 1	COc1ccc2c(=O)c3c(O)cc4c(c3n(C)c2c1C1(O)C(=O)c2cc(C)cc3ccc(=O)n1c23)C=CC(C)(C)O4 (configuration not stated)	75.8
11.4	> 1	> 1	> 1	> 1	> 1	> 1	> 1	> 1	COc1cc2ccc(=O)oc2cc1OC [SCOPARONE]	54.4
10.5	> 1	> 1	> 1	> 1	> 1	> 1	> 1	> 1	CC1(C)C=Cc2c(cc(O)c3c(=O)cc(-c4ccc(O)cc4)oc23)O1 [ATALANTOFLAVONE]	55.6
